# Test results taken from US20020137655A1, “Use of haloperoxidase, peroxide and carboxylic acid” (Novozymes A/S, priority 2000, published 2002).
# Test system: Escherichia coli (DSM 1576)
# Assay: Antibacterial activity of haloperoxidase, hydrogen peroxide and a buffer compound against Escherichia coli cells (conductance measurement, Malthus)
# Format: cell-based
# Details: for Log CFU/ml (reduction in number of living bacterial cells): buffer 50 mM, 40° C., 20 minutes, approx. 10^6 CFU/ml; for bactericidal activity: carboxylic acid as buffer with haloperoxidase and hydrogen peroxide (Table 1), log CFU/ml reduction of more than 6 units corresponds to 100%
# Method: Antimicrobial activity may be measured in terms of the number of log reductions. The term “log reduction” is defined as a logarithmic reduction of the number of living cells, e.g. 1 log reduction corresponds to a reduction in living cell number of Escherichia coli DSM1576 or Enterococcus faecalis DSM2570 from Y×10^X CFU/M (CFU: […] The number of living bacteria are to be determined as the number of E. coli or E. faecalis, respectively, which can grow on Tryptone Soya Agar plates at 30° C. The antibacterial activity of a system composed of a haloperoxidase and hydrogen peroxide were tested in a variety of buffers (including both carboxylic acids and other buffer compounds) and pH against Escherichia coli (DSM 1576). The E. coli cells were grown in Brain Heart Infusion broth (BHI) until stationary growth phase (30° C., 20 hours). […] Subsequently the solution was incubated in a 96-well MicroWell plate (Nunc A/S, Denmark) at 40° C. in 20 minutes. […] The detection times measured by the Malthus instrument were converted to CFU/ml by a calibration curve.
# [1] = pH 6, rCvP 0.5 mg/L, H2O2 0.5 mM
# [2] = pH 5, rCvP 0.5 mg/L, H2O2 0.5 mM
# [3] = pH 7, rCvP 0.1 mg/L, H2O2 0.25 mM
Molecule,Log CFU/ml (reduction in number of living bacterial cells) [1] [Log CFU/ml],Log CFU/ml (reduction in number of living bacterial cells) [2] [Log CFU/ml],bactericidal activity [%],Log CFU/ml (reduction in number of living bacterial cells) [3] [Log CFU/ml],"Log CFU/ml (reduction in number of living bacterial cells) (pH 8, rCvP 1 mg/L, H2O2 1 mM) [Log CFU/ml]"
O=S(=O)(O)CCN1CCOCC1 [2-(N-morpholino) ethanesulfonic acid],0.6,,,,
CC(=O)O [Acetic acid],,6.0,100,,
O=C(O)CC(O)(CC(=O)O)C(=O)O [Citric acid],,6.4,100,,
"CC(C)(CC(=O)O)CC(=O)O [Dimethylglutaric acid (DMG), Dimethylglutaric acid]",6.7,,100,7.3,
O=S(=O)(O)CCN1CCN(CCO)CC1 [HEPES],,,,0.7,0.6
O=P([O-])(O)O.[K+] [KH2PO4],,,,0.3,0.4
Tris(hydroxymethyl)amino-methane [Tris(hydroxymethyl)amino-methane (TRIS)],,,,0.3,0.5
